Laboratory results reported in article PMC6952396, “Structural basis for itraconazole-mediated NPC1 inhibition” (Nature Communications, 2020).
Like-named read-outs stand apart in the source and are kept apart here.

Target: T1, NPC1 (Cricetulus griseus, UniProt Q9JLG3)
T1 construct: CHO-7 cells in the medium are deprived of cholesterol to induce the LDL receptors biosynthesis; endogenous in cells; host or cells: CHO-7 cells
T1 sequence (Q9JLG3 23-1277): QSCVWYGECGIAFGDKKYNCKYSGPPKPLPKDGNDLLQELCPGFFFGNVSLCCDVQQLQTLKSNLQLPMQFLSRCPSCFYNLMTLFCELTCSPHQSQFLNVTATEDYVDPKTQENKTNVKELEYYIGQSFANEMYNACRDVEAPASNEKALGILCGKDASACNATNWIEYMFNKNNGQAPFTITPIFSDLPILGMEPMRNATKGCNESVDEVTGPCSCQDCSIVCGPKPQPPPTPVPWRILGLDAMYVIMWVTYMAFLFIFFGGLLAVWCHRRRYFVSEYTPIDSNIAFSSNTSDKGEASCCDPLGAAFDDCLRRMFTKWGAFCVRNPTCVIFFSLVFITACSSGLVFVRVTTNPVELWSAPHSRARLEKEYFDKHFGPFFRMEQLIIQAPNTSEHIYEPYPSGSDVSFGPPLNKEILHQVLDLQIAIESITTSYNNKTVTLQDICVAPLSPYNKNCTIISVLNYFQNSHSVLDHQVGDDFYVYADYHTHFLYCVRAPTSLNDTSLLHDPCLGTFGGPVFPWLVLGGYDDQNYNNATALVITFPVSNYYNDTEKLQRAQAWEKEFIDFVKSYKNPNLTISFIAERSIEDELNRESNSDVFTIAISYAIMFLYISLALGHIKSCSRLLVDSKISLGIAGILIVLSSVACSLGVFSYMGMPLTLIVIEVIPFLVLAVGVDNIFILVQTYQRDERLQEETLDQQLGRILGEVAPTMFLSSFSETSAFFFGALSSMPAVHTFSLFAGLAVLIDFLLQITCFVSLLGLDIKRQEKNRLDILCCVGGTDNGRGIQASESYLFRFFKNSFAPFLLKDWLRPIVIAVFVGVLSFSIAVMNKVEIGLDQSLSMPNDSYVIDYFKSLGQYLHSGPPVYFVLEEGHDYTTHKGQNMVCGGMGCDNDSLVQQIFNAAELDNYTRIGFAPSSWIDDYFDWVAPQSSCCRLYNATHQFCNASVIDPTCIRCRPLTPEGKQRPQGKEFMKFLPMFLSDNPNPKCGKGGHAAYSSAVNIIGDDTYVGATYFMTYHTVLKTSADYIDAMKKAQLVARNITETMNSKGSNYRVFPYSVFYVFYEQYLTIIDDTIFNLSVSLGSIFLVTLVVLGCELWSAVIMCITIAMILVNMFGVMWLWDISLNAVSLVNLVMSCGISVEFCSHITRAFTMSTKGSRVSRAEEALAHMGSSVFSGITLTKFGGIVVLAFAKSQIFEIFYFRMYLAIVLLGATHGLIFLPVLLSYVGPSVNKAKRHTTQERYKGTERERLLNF
Assay: Cholesterol re-esterification (ACAT) assay measuring NPC1-mediated export of cholesterol from lysosomes in CHO-7 cells
Type: cell-based
Conditions: for cholesteryl [14C] oleate formed, Repeat 1 / cholesteryl [14C] oleate formed, Repeat 2: Fig. 2 source data; for cholesteryl [14C] oleate formed, Repeat 3 / cholesteryl [14C] oleate formed, Repeat 4: Supplementary Fig. 3 source data
Description: Itraconazole has three chiral centers (Supplementary Fig. 2a). The pharmaceutical form contains four cis-stereoisomers in a 1:1:1:1 molar ratio (Supplementary Fig. 2a–d). To determine the activity of the cis-stereoisomers, the individual isomers were isolated and identified based on their optical rotation in chloroform following a previous report (Supplementary Fig. 2e)[26]. Then, they were separately tested in a cholesterol re-esterification assay used to measure NPC1-mediated export of cholesterol from lysosomes. Briefly, CHO-7 cells in the medium are deprived of cholesterol to induce the LDL receptors biosynthesis. The cells are then incubated with fetal calf serum (FCS) that contains LDL. The LDL-derived cholesterol will now be transported by functional NPC1 protein from the lysosome to the endoplasmic reticulum (ER). The acyl-CoA:cholesterol actyltransferase named ACAT can now re-esterify the cholesterol in the ER. Therefore, the cells were pulse-labeled with [^14C] oleate and we can measure the synthesis of cholesteroyl [^14C] oleate to evaluate the activity of NPC1 protein. Using this assay, we tested the ability of various itraconazole to inhibit NPC1 activity.
Fig. 2 ACAT activity of itraconazole and ketoconazole in CHO-7 cells. On day 0, CHO-7 cells were set up in medium A with 5% LPDS at 2.5 × 10^5 cells/well in 6-well dish. On day 2, cells were switched to medium A with 5% LPDS containing 50 µM sodium compactin and 50 µM sodium mevalonate. On day 3 the cells received fresh medium B containing compactin and mevalonate with various concentration compounds in the presence of 10% FCS containing lipoproteins. After incubation for 4 h at 37 °C, each cell monolayer was pulse-labeled for 2 h with 0.1 mM sodium [^14C] oleate (5792 dpm/nmol). The cells were then harvested for measurement of their content of cholesteryl [^14C] oleate and [^14C] triglycerides, as described in Methods. […] Itraconazole mixture, isomer A (Supplementary Fig. 2a), isomer B (Supplementary Fig. 2b) and isomer C (Supplementary Fig. 2c) were added at final concentrations of 0.3 μM. The isomer D (Supplementary Fig. 2d), I-Br and ketoconazole were added at final concentrations of 1 μM. The biological repeats are shown as individual values. Source data are provided as a Source Data file.
On day 0, cells were set up in medium A with 5% LPDS at 2.5 × 10^5 cells/well in six-well dish. On day 2, cells were switched to medium A with 5% LPDS containing 50 µM sodium compactin and 50 µM sodium mevalonate. On day 3 the cells received fresh medium B containing compactin and mevalonate with indicated concentration triazole compounds in the presence of 10% FCS containing lipoproteins. After incubation for 4 h at 37 °C, each cell monolayer was pulse-labeled for 2 h with 0.1 mM sodium [^14C] oleate (5792 dpm/nmol). The cells were then harvested for measurement of their content of cholesteryl [^14C] oleate and [^14C] triglycerides.
The rate of incorporation of [^14C] oleate into cholesteryl [^14C] oleate and [^14C] triglycerides by monolayers of NPC1^−/− cells and CHO-7 cells was measured as described previously. In brief, cells were switched to medium containing LPDS supplemented with compactin and mevolonate at 16 h before the experiments. On the day of the experiment, cells were incubated for 4 h with fresh medium containing FCS as a source of cholesterol-containing lipoproteins. Cells were then pulse –labeled for 2 h with 0.1 mM sodium [^14C] oleate. Cells were then washed, and the lipids were extracted in hexane:isopropanol (3:2, vol:vol), separated on a silica gel G thin-layer chromatogram (developed in heptane:ethylether:acetic acid, 90:30:1), and quantified by scintillation counting with the use of an internal standard for recovery.

In the case of CCC(C)n1ncn(-c2ccc(N3CCN(c4ccc(OCC5COC(Cn6cncn6)(c6ccc(Cl)cc6Cl)O5)cc4)CC3)cc2)c1=O (stereo not drawn) [Itra-A], the “cholesteryl [14C] oleate formed, Repeat 1” value (from here on “cholesteryl … Repeat 1”) (0.01 uM compound) is reported as 3.345 nanomoles formed per hour per milligram cell protein, the “cholesteryl [14C] oleate formed, Repeat 2” value (“cholesteryl … Repeat 2” for short) (0.01 uM compound) is reported as 3.639 nanomoles formed per hour per milligram cell protein and the “cholesteryl [14C] oleate formed, Repeat 3” value (“cholesteryl … Repeat 3” for short) (0.01 uM compound) is reported as 4.944 nanomoles formed per hour per milligram cell protein. The “cholesteryl [14C] oleate formed, Repeat 4” value (“cholesteryl … Repeat 4” for short) (0.01 uM compound) was 4.771 nanomoles formed per hour per milligram cell protein, the “cholesteryl … Repeat 1” value (0.03 uM compound) was 2.117 nanomoles formed per hour per milligram cell protein and the “cholesteryl … Repeat 2” value (0.03 uM compound) was 3.138 nanomoles formed per hour per milligram cell protein. For the same molecule, the “cholesteryl … Repeat 3” value (0.03 uM compound) was 2.06 nanomoles formed per hour per milligram cell protein, the “cholesteryl … Repeat 4” value (0.03 uM compound) was 3.899 nanomoles formed per hour per milligram cell protein and the “cholesteryl … Repeat 1” value (0.06 uM compound) was 1.347 nanomoles formed per hour per milligram cell protein. The “cholesteryl … Repeat 2” value (0.06 uM compound) was 1.367 nanomoles formed per hour per milligram cell protein, the “cholesteryl … Repeat 3” value (0.06 uM compound) was 2.476 nanomoles formed per hour per milligram cell protein and the “cholesteryl … Repeat 4” value (0.06 uM compound) was 3.208 nanomoles formed per hour per milligram cell protein. The “cholesteryl … Repeat 1” value (0.1 uM compound) was 0.6494 nanomoles formed per hour per milligram cell protein, the “cholesteryl … Repeat 2” value (0.1 uM compound) was 0.4243 nanomoles formed per hour per milligram cell protein and the “cholesteryl … Repeat 3” value (0.1 uM compound) was 0.5346 nanomoles formed per hour per milligram cell protein. For the same molecule, the “cholesteryl … Repeat 4” value (0.1 uM compound) was 0.7537 nanomoles formed per hour per milligram cell protein, the “cholesteryl … Repeat 1” value (0.3 uM compound) was 0.1828 nanomoles formed per hour per milligram cell protein and the “cholesteryl … Repeat 2” value (0.3 uM compound) was 0.9513 nanomoles formed per hour per milligram cell protein. The “cholesteryl … Repeat 3” value (0.3 uM compound) was 0.009558 nanomoles formed per hour per milligram cell protein, the “cholesteryl … Repeat 4” value (0.3 uM compound) was 0.01486 nanomoles formed per hour per milligram cell protein and the IC50 (read-out: IC50 (concentration at which each compound inhibited cholesterol esterification by 50%), 10% FCS, 4 h then 2 h [14C] oleate pulse) was 20 nM.

For CCC(C)n1ncn(-c2ccc(N3CCN(c4ccc(OCC5COC(Cn6cncn6)(c6ccc(Cl)cc6Cl)O5)cc4)CC3)cc2)c1=O (stereo not drawn) [Itra-C], the “cholesteryl … Repeat 1” value (0.01 uM compound) was 2.751 nanomoles formed per hour per milligram cell protein, the “cholesteryl … Repeat 2” value (0.01 uM compound) was 4.364 nanomoles formed per hour per milligram cell protein and the “cholesteryl … Repeat 3” value (0.01 uM compound) was 5.964 nanomoles formed per hour per milligram cell protein. For the same molecule, the “cholesteryl … Repeat 4” value (0.01 uM compound) was 6.001 nanomoles formed per hour per milligram cell protein, the “cholesteryl … Repeat 1” value (0.03 uM compound) was 3.794 nanomoles formed per hour per milligram cell protein and the “cholesteryl … Repeat 2” value (0.03 uM compound) was 3.288 nanomoles formed per hour per milligram cell protein. For the same molecule, the “cholesteryl … Repeat 3” value (0.03 uM compound) was 5.048 nanomoles formed per hour per milligram cell protein, the “cholesteryl … Repeat 4” value (0.03 uM compound) was 4.017 nanomoles formed per hour per milligram cell protein and the “cholesteryl … Repeat 1” value (0.06 uM compound) was 2.064 nanomoles formed per hour per milligram cell protein. The “cholesteryl … Repeat 2” value (0.06 uM compound) was 2.2038 nanomoles formed per hour per milligram cell protein, the “cholesteryl … Repeat 3” value (0.06 uM compound) was 2.593 nanomoles formed per hour per milligram cell protein and the “cholesteryl … Repeat 4” value (0.06 uM compound) was 3.086 nanomoles formed per hour per milligram cell protein. For the same molecule, the “cholesteryl … Repeat 1” value (0.1 uM compound) was 1.063 nanomoles formed per hour per milligram cell protein, the “cholesteryl … Repeat 2” value (0.1 uM compound) was 0.9711 nanomoles formed per hour per milligram cell protein and the “cholesteryl … Repeat 3” value (0.1 uM compound) was 0.7465 nanomoles formed per hour per milligram cell protein. For the same molecule, the “cholesteryl … Repeat 4” value (0.1 uM compound) was 0.811 nanomoles formed per hour per milligram cell protein, the “cholesteryl … Repeat 1” value (0.3 uM compound) was 0.4254 nanomoles formed per hour per milligram cell protein and the “cholesteryl … Repeat 2” value (0.3 uM compound) was 0.7413 nanomoles formed per hour per milligram cell protein. For the same molecule, the “cholesteryl … Repeat 3” value (0.3 uM compound) was 0.1456 nanomoles formed per hour per milligram cell protein, the “cholesteryl … Repeat 4” value (0.3 uM compound) was 0.04925 nanomoles formed per hour per milligram cell protein and the IC50 (IC50 (concentration at which each compound inhibited cholesterol esterification by 50%), 10% FCS, 4 h then 2 h [14C] oleate pulse) was 35 nM.
